In patent publication US20030228632A1, “Stable RXR expressing cell line” (Allergan Sales, Inc., priority 2000, published 2003):

Tests used:
Type in all cases: cell-based, Rat
[1] = system: phosphorylated MEK in HircB cells; assay: Insulin stimulated phosphorylation of MEK in HircB cells (Western blot, FIG. 8); conditions: 100 nM insulin, 0-30 minutes
Description: (§1) They were then incubated for various periods in the presence of 100 nM insulin and then lysed. Solubilized cell proteins were subjected to SDS-PAGE and transferred to nitrocellulose and immunoblotted using antibodies specific to phosphorylated forms of MEK and MAP kinase.
(§2) FIGS. 8 and 9 show the results. […] In the left panel, the parental HircB cell line was tested for phosphorylated MEK in the solubilized protein at 0 minutes (lane 1), 5 minutes (lane 2), 15 minutes (lane 3) and 30 minutes (lane 4) after treatment with 100 nM insulin.

[2] = system: phosphorylated MEK in HircRXRα cells; assay: Insulin stimulated phosphorylation of MEK in HircRXRα cells (Western blot, FIG. 8); conditions: 100 nM insulin, 0-30 minutes
Description: as §1, §2

[3] = system: phosphorylated MAP-kinase in HircB cells; assay: Insulin stimulated phosphorylation of MAP kinase in HircB cells (Western blot, FIG. 9); conditions: 100 nM insulin, up to 90 minutes
Description: as §1
(§3) Similar results are shown in FIG. 9 with respect to the phosphorylation of MAP-kinase in response to insulin.

[4] = system: phosphorylated MAP-kinase in HircRXRα cells; assay: Insulin stimulated phosphorylation of MAP kinase in HircRXRα cells (Western blot, FIG. 9); conditions: 100 nM insulin, up to 90 minutes
Description: as §1, §3

HircRXRα cells [5] = assay: Cell growth of HircRXRα cells, direct microscopic observation; conditions: 1 nM
Description: (§4) The effect on cell growth was evaluated by plating either a HircB cells (as a control) or HircRXRα cells in 6 well plates with 0.5×10^5 cells per well in 10% FBS/DMEM/F12. The next day, the medium was replaced with a specified concentration of agonist, antagonist or both or with 0.1% DMSO in 10% FBS/DMEM/F12. Analyses were performed in triplicate.
[…] Alternatively, cell growth was measured using the MTT assay using absorbance at 590 nm. Mosmann, T., et al., J Immunol. Meth. (1983) 65:55-62.

HircRXRα cells [6] = assay: Cell counts of HircRXRα cells after agonist treatment (FIG. 5); conditions: 1 nM, four days of treatment
Description: as §4

HircB cells = assay: Cell counts of parental HircB cells after agonist treatment (FIG. 5); conditions: 1 nM, four days of treatment
Description: as §4

HircRXRα cells [7] = assay: HircRXRα cell growth by MTT assay (FIGS. 6 and 7); conditions: five days of treatment, FIG. 6
Description: as §4
After incubation with agonist for 2 days, the change in cell number and morphology in the various HircRXRα cell samples were observed under the microscope. Alternatively, cell growth was measured using the MTT assay using absorbance at 590 nm. Mosmann, T., et al., J Immunol. Meth. (1983) 65:55-62.
FIGS. 6 and 7 show effects of RXRα ligands on HircRXRα cell growth as determined when cell growth was assessed by the MTT assay.

Compound | phosphorylated MEK after insulin treatment [1] | phosphorylated MEK after insulin treatment [2] | phosphorylated MAP-kinase after insulin treatment [3] | phosphorylated MAP-kinase after insulin treatment [4] | effect on cell growth (microscopic observation) (HircRXRα cells [5]; after four days) | effect on cell growth (microscopic observation) (HircRXRα cells [5]; after two days) | growth (cell counts) relative to no agonist (HircRXRα cells [6]) | effect on growth (cell counts) (HircB cells) | effect on cell growth (MTT assay) (HircRXRα cells [7]; 1 nM) | effect on cell growth (MTT assay) (HircRXRα cells [7]; 100 nM)
insulin: insulin used at 100 nM to stimulate MEK and MAP kinase phosphorylation | diminished considerably by 30 minutes | less reduced after 30 minutes than in the HircB cell line | virtually gone after 90 minutes | substantially maintained over the 90-minute period | – | – | – | – | – | –
CC(/C=C/[C@@H]1C[C@]1(C)c1ccc2c(c1)C(C)(C)CCC2(C)C)=C\C(=O)O [AGN 4204] | – | – | – | – | the reduction in growth was maintained | greatly reduced growth | approximately one-third | no demonstrable effect | significant reduction in growth | further reduction in growth
